Molecular target: T1, human CaSR (Homo sapiens, UniProt P41180)
T1 construct: expressed in transfected cells; host or cells: CHO cells
T1 sequence (P41180 20-1078): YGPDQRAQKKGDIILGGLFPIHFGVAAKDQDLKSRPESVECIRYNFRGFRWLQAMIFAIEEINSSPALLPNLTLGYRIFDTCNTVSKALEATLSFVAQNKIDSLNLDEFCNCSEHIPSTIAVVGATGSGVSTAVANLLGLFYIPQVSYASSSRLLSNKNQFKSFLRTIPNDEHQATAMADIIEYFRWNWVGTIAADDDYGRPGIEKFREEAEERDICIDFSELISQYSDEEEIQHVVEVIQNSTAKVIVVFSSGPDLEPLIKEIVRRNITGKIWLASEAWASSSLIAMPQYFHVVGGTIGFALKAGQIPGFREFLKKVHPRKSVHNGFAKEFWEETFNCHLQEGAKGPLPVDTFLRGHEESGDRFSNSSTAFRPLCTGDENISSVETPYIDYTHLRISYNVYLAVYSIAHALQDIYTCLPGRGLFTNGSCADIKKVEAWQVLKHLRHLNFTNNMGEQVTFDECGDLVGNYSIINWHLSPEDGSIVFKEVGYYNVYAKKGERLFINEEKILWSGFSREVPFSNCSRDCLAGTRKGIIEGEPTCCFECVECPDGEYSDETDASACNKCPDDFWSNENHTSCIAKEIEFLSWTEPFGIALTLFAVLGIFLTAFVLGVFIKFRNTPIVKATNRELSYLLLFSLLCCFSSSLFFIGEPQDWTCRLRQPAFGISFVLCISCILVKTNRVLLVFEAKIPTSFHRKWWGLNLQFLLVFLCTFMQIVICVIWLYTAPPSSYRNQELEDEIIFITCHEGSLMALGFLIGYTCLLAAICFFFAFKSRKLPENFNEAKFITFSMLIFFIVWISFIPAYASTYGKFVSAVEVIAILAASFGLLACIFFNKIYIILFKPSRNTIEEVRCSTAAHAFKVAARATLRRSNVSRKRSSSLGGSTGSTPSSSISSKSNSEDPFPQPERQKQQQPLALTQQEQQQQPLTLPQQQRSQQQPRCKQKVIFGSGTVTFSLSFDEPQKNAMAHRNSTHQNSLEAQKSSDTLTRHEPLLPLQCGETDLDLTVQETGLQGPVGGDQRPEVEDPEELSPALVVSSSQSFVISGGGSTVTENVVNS
Test: Human CaSR Antagonist Activity (CHO cells, NFAT-Luciferase reporter)
Assay type: cell-based
Conditions: 3.3 μm test compound; CaCl2 final 1.3 mM; 100% = reference carboxamide at 10 μM
Experimental: CaSR antagonist activity measurement was performed using Bright-Glo Luciferase assay system (Promega Corporation). CHO cells in which human CaSR and NFAT-Luciferase reporter gene were forcibly expressed were suspended in MEM alpha (Wako Pure Chemical Industries, Ltd.) containing 10% dialyzed serum (HyClone). The cells in suspension was seeded in 384-well white plate (Corning) at 10,000/20 μL/well, and cultured in an incubator of 37° C., 5% CO2 for one day. A diluent of Test compound was prepared with assay buffer (MEM alpha containing 10 mM HEPES (Life Technologies) and 10% dialysis serum). The diluent was added to the plate at 5 μL/well and allowed to stand at 37° C. for 10 minutes. Further, a diluent of 7.8 mM CaCl2 prepared with assay buffer (final concentration 1.3 mM) was added at 5 μl/well and allowed to stand in an incubator of 37° C., 5% CO2 for 2 hours. Bright-Glo reagents (Promega Corporation) were added at 10 μL/well, and the obtained mixture was stirred for 5 minutes, and then luminescence intensity was measured using Multi-label reader Envision (PerkinElmer, Inc.). The activity (%) of the test compound was calculated with the definitions in which the luminescence intensity when DMSO is added in place of the test compound is defined as 0% inhibition; and the luminescence intensity when (5R)—N-(1-ethyl-1-(4-ethylphenyl)propyl)-2,7,7-trimethyl-5-phenyl-4,5,6,7-tetrahydropyrazolo[1,5-a]Pyrimidine-3-carboxamide at final concentration of 10 μM is added is defined as 100% inhibition.

| Inhibition rate (%) at 3.3 μm | Structure (SMILES) |
| --- | --- |
| 92% | CC1(C)C[C@H](c2ccccc2)Nc2c(C(=O)N3CC4CC4(c4ccc(C(F)(F)F)cc4F)C3)cnn21 (stereo partly drawn) [Example 29, ((5R)-7,7-Dimethyl-5-phenyl-4,5,6,7-tetrahydropyrazolo[1,5-a]pyrimidin-3-yl)(1-(2-fluoro-4-(trifluoromethyl)phenyl)-3-azabicyclo[3.1.0]hex-3-yl)methanone] |
| 93% | COc1cccc(C23CC2CN(C(=O)c2cnn4c2N[C@@H](c2ccccc2)CC4(C)C)C3)c1 (stereo partly drawn) [Example 20, ((5R)-7,7-Dimethyl-5-phenyl-4,5,6,7-tetrahydropyrazolo[1,5-a]pyrimidin-3-yl)(1-(3-methoxyphenyl)-3-azabicyclo[3.1.0]hex-3-yl)methanone] |
| 95% | CC1(C)C[C@H](c2ccccc2)Nc2c(C(=O)N3CC4CC4(c4cccc(Cl)c4)C3)cnn21 (stereo partly drawn) [Example 17, (1-(3-Chlorophenyl)-3-azabicyclo[3.1.0]hex-3-yl)((5R)-7,7-dimethyl-5-phenyl-4,5,6,7-tetrahydropyrazolo[1,5-a]pyrimidin-3-yl)methanone] |
| 92% | Cc1cccc(C23CC2CN(C(=O)c2cnn4c2N[C@@H](c2ccccc2)CC4(C)C)C3)c1 (stereo partly drawn) [Example 23, ((5R)-7,7-Dimethyl-5-phenyl-4,5,6,7-tetrahydropyrazolo[1,5-a]pyrimidin-3-yl)(1-(3-methylphenyl)-3-azabicyclo[3.1.0]hex-3-yl)methanone] |
| 101% | CC1(C)C[C@H](c2ccccc2)Nc2c(C(=O)N3CC4CC4(c4ccc(C(F)(F)F)cc4F)C3)cnn21 (stereo partly drawn) [Example 28, ((5R)-7,7-Dimethyl-5-phenyl-4,5,6,7-tetrahydropyrazolo[1,5-a]pyrimidin-3-yl)(1-(2-fluoro-4-(trifluoromethyl)phenyl)-3-azabicyclo[3.1.0]hex-3-yl)methanone] |

Same assay, conditions: CHO, 2 h, 3.3 μm test compound; CaCl2 final 1.3 mM; 100% = reference carboxamide at 10 μM; read-out: Inhibition rate (%) at 3.3 μm

| inhibition at 3.3 µM | Structure (SMILES) |
| --- | --- |
| 115% | COc1cccc(C23CN(C(=O)c4cnn5c4N[C@@H](c4ccccc4)CC5(C)C)CC2C3(F)F)c1 (stereo partly drawn) [Example 51, (6,6-Difluoro-1-(3-methoxyphenyl)-3-azabicyclo[3.1.0]hex-3-yl)((5R)-7,7-dimethyl-5-phenyl-4,5,6,7-tetrahydropyrazolo[1,5-a]pyrimidin-3-yl)methanone] |
| 136% | Cc1cccc(C23CN(C(=O)c4cnn5c4N[C@@H](c4ccccc4)CC5(C)C)CC2C3(F)F)c1 (stereo partly drawn) [Example 49, (6,6-Difluoro-1-(3-methylphenyl)-3-azabicyclo[3.1.0]hex-3-yl)((5R)-7,7-dimethyl-5-phenyl-4,5,6,7-tetrahydropyrazolo[1,5-a]pyrimidin-3-yl)methanone] |
| 92% | CC1(C)C[C@H](c2ccccc2)Nc2c(C(=O)N3CC4C[C@]4(c4ccc(C(F)(F)F)cc4)C3)cnn21 (stereo partly drawn) [Example 8, ((5R)-7,7-Dimethyl-5-phenyl-4,5,6,7-tetrahydropyrazolo[1,5-a]pyrimidin-3-yl)(1-(4-(trifluoromethyl)phenyl)-3-azabicyclo[3.1.0]hex-3-yl)methanone] |
| 92% | CC1(C)C[C@H](c2ccccc2)Nc2c(C(=O)N3C[C@H]4C[C@@]4(c4ccc(Cl)c(Cl)c4)C3)cnn21 [Example 2, ((1R,5S)-1-(3,4-Dichlorophenyl)-3-azabicyclo[3.1.0]hex-3-yl)((5R)-7,7-dimethyl-5-phenyl-4,5,6,7-tetrahydropyrazolo[1,5-a]pyrimidin-3-yl)methanone] |
| 111% | CC1(C)C[C@H](c2ccccc2)Nc2c(C(=O)N3CC4CC4(c4ccc(C(F)(F)F)cc4F)C3)cnn21 (stereo partly drawn) [Example 27, ((5R)-7,7-Dimethyl-5-phenyl-4,5,6,7-tetrahydropyrazolo[1,5-a]pyrimidin-3-yl)(1-(2-fluoro-4-(trifluoromethyl)phenyl)-3-azabicyclo[3.1.0]hex-3-yl)methanone] |
| 90% | CC1(C)C[C@H](c2ccccc2)Nc2c(C(=O)N3CC4CC4(c4ccc(C(F)(F)F)c(Cl)c4)C3)cnn21 (stereo partly drawn) [Example 12, (1-(3-Chloro-4-(trifluoromethyl)phenyl)-3-azabicyclo[3.1.0]hex-3-yl)((5R)-7,7-dimethyl-5-phenyl-4,5,6,7-tetrahydropyrazolo[1,5-a]pyrimidin-3-yl)methanone] |
| 128% | COc1ccc(C23CN(C(=O)c4cnn5c4N[C@@H](c4ccccc4)CC5(C)C)CC2C3(F)F)cc1 (stereo partly drawn) [Example 50, (6.6-Difluoro-1-(4-methoxyphenyl)-3-azabicyclo[3.1.0]hex-3-yl)((5R)-7,7-dimethyl-5-phenyl-4,5,6,7-tetrahydropyrazolo[1,5-a]pyrimidin-3-yl)methanone] |
| 99% | CC1(C)C[C@H](c2ccccc2)Nc2c(C(=O)N3CC4CC4(c4ccsc4)C3)cnn21 (stereo partly drawn) [Example 46, ((5R)-7,7-Dimethyl-5-phenyl-4,5,6,7-tetrahydropyrazolo[1,5-a]pyrimidin-3-yl)(1-(3-thienyl)-3-azabicyclo[3.1.0]hex-3-yl)methanone] |
| 99% | COc1cccc(C23CC2CN(C(=O)c2cnn4c2N[C@@H](c2ccccc2)CC4(C)C)C3)c1 (stereo partly drawn) [Example 19, ((5R)-7,7-Dimethyl-5-phenyl-4,5,6,7-tetrahydropyrazolo[1,5-a]pyrimidin-3-yl)(1-(3-methoxyphenyl)-3-azabicyclo[3.1.0]hex-3-yl)methanone] |
| 97% | CC1(C)C[C@H](c2ccccc2)Nc2c(C(=O)N3CC4CC4(c4cccc(C(F)(F)F)c4)C3)cnn21 (stereo partly drawn) [Example 25, ((5R)-7,7-Dimethyl-5-phenyl-4,5,6,7-tetrahydropyrazolo[1,5-a]pyrimidin-3-yl)(1-(3-(trifluoromethyl)phenyl)-3-azabicyclo[3.1.0]hex-3-yl)methanone] |
| 100% | CC1(C)C[C@H](c2ccccc2)Nc2c(C(=O)N3CC4CC4(c4cccc(Cl)c4)C3)cnn21 (stereo partly drawn) [Example 16, (1-(3-Chlorophenyl)-3-azabicyclo[3.1.0]hex-3-yl)((5R)-7,7-dimethyl-5-phenyl-4,5,6,7-tetrahydropyrazolo[1,5-a]pyrimidin-3-yl)methanone] |
| 96% | CC1(C)C[C@H](c2ccccc2)Nc2c(C(=O)N3C[C@@H]4C[C@]4(C(F)F)C3)cnn21 [Example 47] |
| 117% | Cc1ccc(C23CN(C(=O)c4cnn5c4N[C@@H](c4ccccc4)CC5(C)C)CC2C3(F)F)cc1 (stereo partly drawn) [Example 48, (6,6-Difluoro-1-(4-methylphenyl)-3-azabicyclo[3.1.0]hex-3-yl)((5R)-7,7-dimethyl-5-phenyl-4,5,6,7-tetrahydropyrazolo[1,5-a]pyrimidin-3-yl)methanone] |
| 111% | COc1ccccc1C12CN(C(=O)c3cnn4c3N[C@@H](c3ccccc3)CC4(C)C)CC1C2(F)F (stereo partly drawn) [Example 52, (6,6-Difluoro-1-(2-methoxyphenyl)-3-azabicyclo[3.1 0]hex-3-yl)((5R)-7,7-dimethyl-5-phenyl-4.5,5,7-tetrahydropyrazolo[1,5-a]pyrimidin-3-yl)methanone] |
| 96% | CC1(C)C[C@H](c2ccccc2)Nc2c(C(=O)N3CC4CC4(c4ccncc4)C3)cnn21 (stereo partly drawn) [Example 45] |
| 101% | Cc1cccc(C23CC2CN(C(=O)c2cnn4c2N[C@@H](c2ccccc2)CC4(C)C)C3)c1 (stereo partly drawn) [Example 22, ((5R)-7,7-Dimethyl-5-phenyl-4,5,6,7-tetrahydropyrazolo[1,5-a]pyrimidin-3-yl)(1-(3-methylphenyl)-3-azabicyclo[3.1.0]hex-3-yl)methanone] |

— US10919891B2, “Heterocyclic compound” (TAKEDA PHARMACEUTICAL COMPANY LIMITED, priority 2017, dated 2021)
